Experimental data reported in US6544985B2, “Dihydro-benzo [b][1,4]diazepin-2-one derivatives” (Hoffman-La Roche Inc., priority 2001, dated 2003).

How the values were obtained:
[1] = target: T1, recombinant rat mGluR2 expressed in CHO cells (Rattus norvegicus, UniProt P31421); test: [3H]-LY354740 binding on mGlu2 transfected CHO cell membranes (displacement binding assay)
T1 construct: expressed in transfected cells; vector pcDNA I-amp, construct pcD1mGR2
T1 sequence (P31421 19-872): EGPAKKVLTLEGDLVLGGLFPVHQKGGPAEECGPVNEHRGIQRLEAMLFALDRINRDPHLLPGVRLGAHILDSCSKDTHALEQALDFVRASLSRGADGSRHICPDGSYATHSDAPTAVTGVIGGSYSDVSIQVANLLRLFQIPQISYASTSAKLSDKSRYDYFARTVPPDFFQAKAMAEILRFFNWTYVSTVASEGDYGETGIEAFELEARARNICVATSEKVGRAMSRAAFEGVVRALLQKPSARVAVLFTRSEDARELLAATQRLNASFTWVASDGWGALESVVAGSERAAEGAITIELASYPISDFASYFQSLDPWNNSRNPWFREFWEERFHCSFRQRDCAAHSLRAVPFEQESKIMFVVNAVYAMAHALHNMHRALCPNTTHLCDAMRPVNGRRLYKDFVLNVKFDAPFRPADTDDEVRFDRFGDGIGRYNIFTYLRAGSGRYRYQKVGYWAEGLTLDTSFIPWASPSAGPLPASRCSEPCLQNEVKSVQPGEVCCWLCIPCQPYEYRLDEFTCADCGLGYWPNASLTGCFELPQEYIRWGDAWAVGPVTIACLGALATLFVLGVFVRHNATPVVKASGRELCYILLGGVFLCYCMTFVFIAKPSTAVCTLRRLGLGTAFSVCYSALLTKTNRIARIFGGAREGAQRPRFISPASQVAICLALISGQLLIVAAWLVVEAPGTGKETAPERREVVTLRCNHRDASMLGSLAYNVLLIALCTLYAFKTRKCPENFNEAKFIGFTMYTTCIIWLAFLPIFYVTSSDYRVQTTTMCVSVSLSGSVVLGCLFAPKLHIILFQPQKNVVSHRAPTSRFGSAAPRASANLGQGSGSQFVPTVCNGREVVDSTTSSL
Description: These values were obtained by indirect measurement of the affinity of the compounds for the recombinant rat mGluR2 expressed in CHO cells using a displacement binding assay with 3H-LY354740.
Transfection and Cell Culture
cDNA encoding the rat mGlu2 receptor protein in pBluescript II was obtained from Prof. S. Nakanishi (Kyoto, Japan), and subcloned into the eukaryotic expression vector pcDNA I-amp from Invitrogen (NV Leek, The Netherlands). This vector construct (pcD1mGR2) was co-transfected with a psvNeo plasmid encoding the gene for neomycin resistance, into CHO cells by a modified calcium phosphate method described by Chen & Okayama (1988). The cells were maintained in Dulbecco's Modified Eagle medium with reduced L-glutamine (2 mM final concentration) and 10% dialysed foetal calf serum from Gibco BRL (Basel, Switzerland). Selection was made in the presence of G-418 (1000 ug/ml final). Clones were identified by reverse transcription of 5 μg total RNA, followed by PCR using mGlu2 receptor specific primers 5′-[sequence]-3′ and 5′-[sequence]-3′ in 60 mM Tris HCl (pH 10), 15 mM (NH4)2SO4, 2 mM MgCl2, 25 units/ml Taq Polymerase with 30 cycles annealing at 60° C. for 1 min., extention at 72° C. for 30 s, and 1 min. 95° C. denaturation.
Cells, cultured as above, were harvested and washed three times with cold PBS and frozen at −80° C. The pellet was resuspended in cold 20 mM HEPES-NaOH buffer containing 10 mM EDTA (pH 7.4), and homogenised with a polytron (Kinematica, AG, Littau, Switzerland) for 10 s at 10 000 rpm. After centrifugation for 30 min. at 4° C., the pellet was washed once with the same buffer, and once with cold 20 mM HEPES-NaOH buffer containing 0.1 mM EDTA, (pH 7.4). Protein content was measured using the Pierce method (Socochim, Lausanne, Switzerland) using bovine serum albumin as standard.
After thawing, the membranes were resuspended in cold 50 mM Tris-HCl buffer containing 2 mM MgCl2 and 2 mM CaCl2, (pH 7) (binding buffer). The final concentration of the membranes in the assays was 25 µg protein/ml. Inhibition experiments were performed with membranes incubated with 10 nM [^3H]-LY354740 at room temperature, for 1 hour, in presence of various concentrations of the compound to be tested. Following the incubations, membranes were filtered onto Whatmann GF/C glass fiber filters and washed 5 times with cold binding buffer. Non specific binding was measured in the presence of 10 μM DCG IV. After transfer of the filters into plastic vials containing 10 ml of Ultima-gold scintillation fluid (Packard, Zürich, Switzerland), the radioactivity was measured by liquid scintillation in a Tri-Carb 2500 TR counter (Packard, Zürich, Switzerland).
The inhibition curves were fitted with a four parameter logistic equation giving IC50 values, and Hill coefficients and the Ki values were calculated using the Cheng and Prusoff equation (Cheng, Y. and Prusoff, W. H., Biochem. Pharmacol. 1973, 22, 3099-3108). A small Ki value expresses high affinity of the compound towards the receptor.

CC(C)CN(C)c1cc2c(cc1C(F)(F)F)NC(=O)CC(c1cccc(-n3cncn3)c1)=N2 [Example 174, 7-(Isobutyl-methyl-amino)-4-(3-[1,2,4]triazol-1-yl-phenyl)-8-trifluoromethyl-1,3-dihydro-benzo[b][1,4]diazepin-2-one]
Ki [1]: 12 nM | melting point: 198 °C

CC(C)CN(C)c1cc2c(cc1Cl)NC(=O)CC(c1cccc(-c3nc(CO)cs3)c1)=N2 [Example 186, 8-Chloro-4-[3-(4-hydroxymethyl-thiazol-2-yl)-phenyl]-7-(isobutyl-methyl-amino)-1,3-dihydro-benzo[b][1,4]diazepin-2-one]
Ki [1]: 3 nM | melting point: 135 to 136 °C

CCNc1nc(-c2cccc(C3=Nc4cc(N(C)C)c(Cl)cc4NC(=O)C3)c2)cs1 [Example 195, 8-Chloro-7-dimethylamino-4-[3-(2-ethylamino-thiazol-4-yl)-phenyl]-1,3-dihydro-benzo[b][1,4]diazepin-2-one]
Ki [1]: 480 nM | melting point: 122 to 123 °C

CN(C)c1cc2c(cc1C(F)(F)F)NC(=O)CC(c1cccc(-c3nnc(CO)s3)c1)=N2 [Example 204, 7-Dimethylamino-4-[3-(5-hydroxymethyl-[1,3,4]thiadiazol-2-yl)-phenyl]-8-trifluoromethyl-1,3-dihydro-benzo[b][1,4]diazepin-2-one]
Ki [1]: 17 nM | melting point: 242 to 246 °C

CCCc1oc(C)nc1-c1cccc(C2=Nc3cc(N(C)C)c(C(F)(F)F)cc3NC(=O)C2)c1 [Example 212, 7-Dimethylamino-4-[3-(2-methyl-5-propyl-oxazol-4-yl)-phenyl]-8-trifluoromethyl-1,3-dihydro-benzo[b][1,4]diazepin-2-one]
Ki [1]: 46 nM | melting point: 211 to 212 °C

CCCN(C)c1cc2c(cc1C(F)(F)F)NC(=O)CC(c1cccc(-c3nnc(CO)s3)c1)=N2 [Example 222, 4-[3-(5-Hydroxymethyl-[1,3,4]thiadiazol-2-yl)-phenyl]-7-(methyl-propyl-amino)-8-trifluoromethyl-1,3-dihydro-benzo[b][1,4]diazepin-2-one]
Ki [1]: 8 nM | melting point: 193 to 194 °C
